# Tested on: Bifidobacterium species
# Test: Comparative growth of Bifidobacterium species and strains on 2% carbohydrate in scratch MRS
# Assay type: cell-based
# Settings: scratch MRS + 2% carbohydrate, 37 C
smiles,measurement,value
OC[C@H]1O[C@@H](O[C@H]2[C@H](O)[C@@H](O)C(O)O[C@@H]2CO)[C@H](O)[C@@H](O)[C@H]1O (stereo partly shown) [lactose],"comparative growth of Bifidobacterium species on four carbohydrate sources (glucose, lactose, GOS1, GOS2)",none of the Bifidobacterium strains used in these experiments grew on lactose

# Source: patent US8785160B2, “Prebiotic formulations and methods of use” (Ritter Pharmaceuticals, Inc., priority 2009, dated 2014)
